Columns and labels:
[1] = system: Durum wheat M3:4 lines derived from M2 plant UT15; assay: Field Trials (2): tolerance scores at two rates of imazamox; type: in vivo; conditions: UT15, range across M3:4 lines
Source text: One hundred ten M3:4 lines derived from sixteen M2 plants were screened at 71 g/ha and 160 g/ha imazamox. The number of M4 lines per M2 plant varied from one to twenty. Tolerance of M3:4 lines was compared to untreated plots of the same line as well as to treated plots of a wild-type cultivar from which some of them were derived.
All tested lines survived at both rates of herbicide treatment, whereas all plants of the wild type were killed at both rates. Based on comparison to the wild type line, all lines tested expressed considerable tolerance to the applied rates, particularly when looking at height reduction relative to untreated plots. A rate of 35 g/ha imazamox is adequate to kill susceptible durum wheat.

[2] = system: AHAS of M2-derived imidazolinone herbicide tolerant lines; assay: In vitro AHAS activity, tolerant lines overall; type: biochemical, Durum wheat; conditions: highest concentration of imazamox (100 uM), 'generally'
Source text: The in vitro activity of AHAS enzyme extracted from the plant can be measured biochemically. […] Even at relatively low concentrations, AHAS activity falls off rapidly.
Table 3 also contains AHAS activity data for several M2-derived imidazolinone herbicide tolerant lines.

Compound: COCc1cnc(C2=NC(C)(C(C)C)C(=O)N2)c(C(=O)O)c1 (stereo not drawn) [imazamox]
- % Chlorosis ([1]; imazamox 71 g/ha, 14 DAT): 30-70%
- % Height Reduction ([1]; imazamox 71 g/ha, 14 DAT): 0-10%
- % Chlorosis ([1]; imazamox 71 g/ha, 30 DAT): 0-10%
- % Height Reduction ([1]; imazamox 71 g/ha, 30 DAT): 5-20%
- % Chlorosis ([1]; imazamox 160 g/ha, 14 DAT): 30-70%
- % Height Reduction ([1]; imazamox 160 g/ha, 14 DAT): 0-10%
- % Chlorosis ([1]; imazamox 160 g/ha, 30 DAT): 0-15%
- % Height Reduction ([1]; imazamox 160 g/ha, 30 DAT): 5-30%
- AHAS activity relative to that of the control [2]: one third to one half

From US20160376605A1, “WHEAT PLANTS HAVING INCREASED TOLERANCE TO IMIDAZOLINONE HERBICIDES” (BASF SE, priority 2003, published 2016)
